Measured values: patent US20240252437A1, “Methods For and Products From Encapsulation of Drugs in Nanoparticles in a Microgravity Environment” (Aphios Corporation, priority 2021, published 2024)

Experiments:
PKC-ε = biological target: T1, PKC-ε (Homo sapiens, UniProt Q02156); settings: in vitro studies (Yi et al., 2012); cited from earlier work
T1 sequence (Q02156 1-737): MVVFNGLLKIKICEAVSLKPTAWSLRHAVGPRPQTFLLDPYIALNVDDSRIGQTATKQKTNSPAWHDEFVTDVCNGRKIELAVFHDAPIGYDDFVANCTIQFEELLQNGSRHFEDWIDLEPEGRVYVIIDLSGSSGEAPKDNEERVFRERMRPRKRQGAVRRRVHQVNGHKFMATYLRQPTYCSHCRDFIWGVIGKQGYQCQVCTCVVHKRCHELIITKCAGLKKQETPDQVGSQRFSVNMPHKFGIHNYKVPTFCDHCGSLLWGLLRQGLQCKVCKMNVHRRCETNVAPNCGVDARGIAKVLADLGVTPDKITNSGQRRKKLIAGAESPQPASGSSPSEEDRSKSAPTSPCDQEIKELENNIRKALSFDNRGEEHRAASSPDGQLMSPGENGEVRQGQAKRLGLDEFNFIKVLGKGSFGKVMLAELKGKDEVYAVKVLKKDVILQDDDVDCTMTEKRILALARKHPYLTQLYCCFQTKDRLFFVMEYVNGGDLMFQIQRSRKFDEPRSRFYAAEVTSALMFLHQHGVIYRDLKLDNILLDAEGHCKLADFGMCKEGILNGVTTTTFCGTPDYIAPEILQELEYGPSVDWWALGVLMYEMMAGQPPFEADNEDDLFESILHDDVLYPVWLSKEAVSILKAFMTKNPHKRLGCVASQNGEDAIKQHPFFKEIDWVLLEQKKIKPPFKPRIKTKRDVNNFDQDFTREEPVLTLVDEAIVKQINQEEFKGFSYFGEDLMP

α-secretase = assay: HEK-293e cell model for APP processing: sAPP-α release by alkaline phosphatase absorbance at 620 nm (Earth); format: cell-based, human; settings: for release of sAPP-α (increase in absorbance at 620 nm): HEK-293e cells stimulated for 24 h at 10^−8M, n=3
Method: The HEK-293e cell line was optimized for studying α-secretase in vitro.
HEK-293e cells are grown to confluency in T75 dishes in DMEM (Dulbecco's Modified Eagle Medium) and 10% FCS (Fetal Calf Serum) with 2 mM L-glutamine and pen-strepamphotericin. Supplements are needed to maintain plasmid expression: (1) Hygromycin stock solution=100× solution=4 mg/mL, final concentration=40 μg/mL (50 mg/12.5 mL makes 4 mg/mL); (2) Puromycin stock solution=100× solution=30 μg/mL stock, final concentration=0.3 μg/mL. Wait for 24-48 hours. All studies used phenol Red Free DMEM medium with 2% FCS. This must be heated to 65° C. for 30 minutes to inactivate endogenous alkaline phosphatase and cooled prior to making up test solutions.
For test solutions, remove 10% FCS growth medium and replace with 1 mL phenol red free DMEM medium+2% FCS per tube (various drug concentrations and control), and freeze cells in cryotubes. Thaw cryotubes and then: (1) Incubate cells at 37° C. for different time points; (2) Centrifuge tube at 1×g for 5 minutes and refreeze tubes to isolate culture supernatants; (3) Thaw tubes and transfer supernatants to new tube: (4) Make up substrate—Phos Blue (KPL Cat #50-88-00) according to manufacturer's instructions; (5) Transfer 100 µL of each sample and add 100 μL of substrate to 96 well plates; (6) Read immediately—record absorbance at 620 nm; and (7) Reacts quickly so record absorbance every 15 minutes for 60 minutes.
After freezing Bryosomes™, HEK-293e cells and cell culture media at −80 °C and thawing after 1, 3, 6 and 16 hours, the samples were analyzed for α-secretase production (FIG. 3). […] Thus, the concentration of 10^−8 M Bryosomes™ after mixing was targeted for the Space mission.

AD-transgenic mice = settings: intranasally-active and orally active (Schrott et al., 2015); cited from earlier work

## CCC/C=C/C=C/C(=O)O[C@H]1/C(=C/C(=O)OC)C[C@H]2C[C@H]([C@@H](C)O)OC(=O)C[C@H](O)C[C@@H]3C[C@H](OC(C)=O)C(C)(C)[C@](O)(C[C@@H]4C/C(=C/C(=O)OC)C[C@H](/C=C/C(C)(C)[C@]1(O)O2)O4)O3 [Bryostatin-1]
PKC-ε
  activation of PKC-ε isoform: activate
α-secretase
  release of sAPP-α (increase in absorbance at 620 nm): significantly increased
α-secretase; listed as Bryostatin-I
  release of sAPP-α (increase in absorbance at 620 nm): strongly induces
α-secretase; HEK-293e cells, concentrations lower than 10^−8M
  release of sAPP-α: do not affect release
AD-transgenic mice
  cognitive performance: rapidly restores cognitive performance
